The text below walks through data of PubChem BioAssay (NCI).

Some test systems named below: M14 melanoma; OVCAR-8 ovarian; NCI-H522 lung; T-47D breast; MOLT-4 leukemia; SW-620 colon; DU-145 prostate; HCC-2998 colon.
What all share (experiment): inhibition of tumour cell growth, NCI panel, 48 h

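Protocol summary: plate cells (96-well), add compound at 5 concentrations, incubate 48 h, interpolate endpoints linearly. GI50 = concentration required for 50% inhibition of growth. Definition used: TGI = concentration required for complete inhibition of growth.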 Some results are limits rather than exact numbers.

For the compound `Cc1nc2sc(C(=O)Nc3cccc(Cl)c3C)c(N)c2cc1C(O)c1ccccc1` (stereo not drawn), the GI50 in the experiment with M14 melanoma is 0.0291 µM; with OVCAR-8 ovarian it was 0.0512 µM; in the experiment on NCI-H522 lung, 0.0278 µM; with T-47D breast, 0.0396 µM; in the experiment with MOLT-4 leukemia, 0.0673 µM; with SW-620 colon, 0.0331 µM. Further, the results for the GI50 in the experiment on DU-145 prostate and in the experiment on HCC-2998 colon were 0.0454 µM and 0.106 µM, respectively. The TGI in the experiment on M14 melanoma came to 13.1 µM; with OVCAR-8 ovarian, 35.3 µM; with NCI-H522 lung it was 1.77 µM; with T-47D breast, 57.6 µM; in the experiment on MOLT-4 leukemia it was 19.7 µM; with SW-620 colon, 15.4 µM. For the same compound, the TGI in the experiment with DU-145 prostate turned out to be 8.5 µM; in the experiment on HCC-2998 colon, 2.36 µM.

Regarding `COC(=O)[C@]12CC[C@@H](C)[C@H](C)[C@@H]1C1=CC[C@@H]3[C@@]4(C)C(C=O)=C[C@@](C)(COC(=O)c5ccco5)C4=CC[C@@]3(C)[C@]1(C)CC2`, the GI50 in the experiment on M14 melanoma is 0.104 µM; in the experiment on OVCAR-8 ovarian, 3.67 µM; in the experiment with NCI-H522 lung, 3.31 µM; in the experiment with T-47D breast, 2.68 µM; in the experiment on MOLT-4 leukemia, 2.11 µM; in the experiment on SW-620 colon, 3.1 µM. For the same compound, the GI50 in the experiment with DU-145 prostate is 3.81 µM; in the experiment on HCC-2998 colon, 2.76 µM. Also, the TGI in the experiment with M14 melanoma turned out to be 6.93 µM; in the experiment with OVCAR-8 ovarian, 15.9 µM; in the experiment on NCI-H522 lung, 10.9 µM; in the experiment with T-47D breast, 38.2 µM; in the experiment with MOLT-4 leukemia, 7.1 µM; in the experiment on SW-620 colon, 11.2 µM. In addition, the values for the TGI in the experiment on DU-145 prostate and in the experiment on HCC-2998 colon were 15.9 µM and 7.17 µM, respectively.

With `COC(=O)C(Br)(C(=O)OC)C(Br)C(Br)C(Br)c1ccccc1` (stereo not drawn), the GI50 is 2.47 µM in the experiment on M14 melanoma; 3.03 µM in the experiment on OVCAR-8 ovarian; 0.573 µM with NCI-H522 lung; 2.47 µM with T-47D breast; 4.24 µM in the experiment on MOLT-4 leukemia; 1.64 µM in the experiment on SW-620 colon. In addition, the results for the GI50 with DU-145 prostate and in the experiment on HCC-2998 colon were 2.31 µM and 17.5 µM, respectively. Moreover, the TGI with M14 melanoma was found to be 6.2 µM; in the experiment on OVCAR-8 ovarian it was 8.15 µM; in the experiment on NCI-H522 lung, 1.53 µM; in the experiment on T-47D breast, 8.06 µM; in the experiment on MOLT-4 leukemia it was 19.7 µM; in the experiment on SW-620 colon, 3.07 µM. Further, the TGI in the experiment with DU-145 prostate is 5.71 µM; with HCC-2998 colon, 32 µM.

Take `CCN1Cc2c(/C=C/c3ccccc3)nc3ccc(OC)cc3c2N(c2cccc(Cl)c2)C1`: the GI50 was 2.04 µM with M14 melanoma; 1.84 µM in the experiment on OVCAR-8 ovarian; 1.4 µM in the experiment with NCI-H522 lung; 1.74 µM with T-47D breast; 1.45 µM in the experiment on MOLT-4 leukemia; 1.67 µM in the experiment with SW-620 colon. Besides, the GI50 in the experiment with DU-145 prostate was 1.94 µM; with HCC-2998 colon, 1.64 µM. In addition, the TGI was found to be 4 µM in the experiment on M14 melanoma; 4.29 µM in the experiment on OVCAR-8 ovarian; 2.88 µM in the experiment on NCI-H522 lung; 4.18 µM with T-47D breast; 5.02 µM in the experiment on MOLT-4 leukemia; 3.29 µM in the experiment on SW-620 colon. For the same compound, the TGI came to 3.47 µM in the experiment on DU-145 prostate and 3.14 µM in the experiment with HCC-2998 colon.

Consider `CCCCc1n(Cc2ccc3ccccc3n2)cc[n+]1Cc1ccc2ccccc2c1`, for which the GI50 is 0.769 µM in the experiment with M14 melanoma; 1.03 µM in the experiment with OVCAR-8 ovarian; 0.58 µM in the experiment with NCI-H522 lung; 0.337 µM with T-47D breast; 1.06 µM with MOLT-4 leukemia; 1.31 µM in the experiment on SW-620 colon. Besides, the figures for the GI50 in the experiment with DU-145 prostate and in the experiment with HCC-2998 colon were 1.44 µM and 0.641 µM, respectively. For the same compound, the TGI turned out to be 2.45 µM with M14 melanoma; 3.17 µM in the experiment with OVCAR-8 ovarian; 2.18 µM in the experiment on NCI-H522 lung; 2.57 µM in the experiment on T-47D breast; 3.61 µM with MOLT-4 leukemia; 4.75 µM in the experiment on SW-620 colon. The TGI came out at 7.98 µM in the experiment with DU-145 prostate and 2.01 µM with HCC-2998 colon.

For the compound `COc1ccccc1CNC(=O)/C=C/c1ccc(O)c(O)c1`, the GI50 is 72.4 µM in the experiment with M14 melanoma; 75.7 µM in the experiment with OVCAR-8 ovarian; 22.7 µM with NCI-H522 lung; 43.4 µM in the experiment on T-47D breast; greater than 100 µM in the experiment with SW-620 colon; 82.4 µM in the experiment on DU-145 prostate. Besides, the GI50 in the experiment on HCC-2998 colon is 34.6 µM. In addition, the TGI in the experiment on M14 melanoma, in the experiment on OVCAR-8 ovarian, in the experiment on NCI-H522 lung, in the experiment with T-47D breast, with SW-620 colon and with DU-145 prostate was greater than 100 µM throughout. Besides, the TGI with HCC-2998 colon was greater than 100 µM.

Regarding `Cn1c(=S)c2[nH]c(SCc3cccnc3)nc2n(C)c1=O`, the TGI in the experiment with M14 melanoma, with OVCAR-8 ovarian, with NCI-H522 lung, with T-47D breast, with MOLT-4 leukemia and in the experiment with SW-620 colon was greater than 100 µM in each case. In addition, the TGI with DU-145 prostate and in the experiment with HCC-2998 colon was greater than 100 µM throughout.

As for `COc1ccc2c3c1OC1C4(CCC5C(C2)N(CC2CC2)CCC351)OCCO4` (stereo not drawn), the TGI with M14 melanoma, with OVCAR-8 ovarian, in the experiment on NCI-H522 lung, in the experiment on T-47D breast, in the experiment with MOLT-4 leukemia and in the experiment on SW-620 colon was greater than 100 µM in each case. Also, the TGI with DU-145 prostate and in the experiment with HCC-2998 colon was greater than 100 µM throughout.

Regarding `COc1cc2c3c(n(CCCN=[N+]=[N-])c(=O)c2cc1OC)-c1ccc(NC(C)=O)cc1C3=O`, the GI50 with M14 melanoma, in the experiment with OVCAR-8 ovarian, in the experiment with NCI-H522 lung, with T-47D breast, in the experiment with SW-620 colon and with DU-145 prostate was greater than 50 µM each time. The GI50 in the experiment on HCC-2998 colon was greater than 50 µM. The TGI with M14 melanoma, with OVCAR-8 ovarian, with NCI-H522 lung, with T-47D breast, in the experiment with SW-620 colon and in the experiment with DU-145 prostate was greater than 50 µM throughout. In the experiment with HCC-2998 colon, this compound returned a TGI greater than 50 µM.

For `CCSc1nc(N)c(C#N)c(-c2ccc(OC)c(OC)c2)c1C#N`, the GI50 in the experiment with M14 melanoma is 18.7 µM; in the experiment with OVCAR-8 ovarian, 15.5 µM; with NCI-H522 lung, 10.2 µM; in the experiment with T-47D breast, greater than 50 µM; in the experiment with SW-620 colon, 25.4 µM; in the experiment with DU-145 prostate, 30.7 µM. Further, the GI50 in the experiment with HCC-2998 colon was 37.9 µM. Moreover, the TGI in the experiment with M14 melanoma was 45.7 µM; in the experiment with OVCAR-8 ovarian, 45.1 µM; in the experiment with NCI-H522 lung, 35.2 µM; with T-47D breast, greater than 50 µM; in the experiment with SW-620 colon it was greater than 50 µM; with DU-145 prostate, greater than 50 µM. Besides, the TGI in the experiment with HCC-2998 colon was greater than 50 µM.
